In paper PMC8548882, “The Trp-rich Antimicrobial Amphiphiles With Intramolecular Aromatic Interactions for the Treatment of Bacterial Infection” (Frontiers in Microbiology, 2021):
Ends that are not written are not given here.

Legend:
[1] = tested on: RAW 264.7 cells; type: cell-based, murine; conditions: RAW264.7; ratio of IC50 to GM
Procedure: (§1) The MTT (3-[4,5 dimethylthiozol-2-yl]-2,5-diphenylterazoliumbromide) dye was selected to analyze the cytotoxicity of peptides against the murine macrophage cell RAW 264.7 (National Collection of Authenticated Cell Cultures, Shanghai, China), human embryonic kidneys (HK293T), and the porcine intestinal epithelial cells (IPEC-J2) as in our previously study ([Li et al., 2020]). In short, the cells (10^4 cells/well) were seeded into 96-well plates and were cultivated overnight. Then the peptides with different final concentration (2μM, 4μM, 8μM, 16μM, 32μM, 64μM, and 128μM) were introduced into the plate and challenged with cells for 24h. After overnight incubation, the 50μl MTT (0.5mg/ml) was added into the cell cultures for 4h. Then the plate was centrifuged to discard the supernatants and obtain the formazan crystals. The DMSO (dimethyl sulfoxide) was employed as a solvent to dissolve the formazan crystals on the bottom of the plate and the optical density was read at 492nm with a microplate reader.

[2] = tested on: HEK 293T cells; type: cell-based, human; conditions: ratio of IC50 to GM
Procedure: as §1

[3] = tested on: P. aeruginosa ATCC 27853; assay: Transmission electron microscope; type: cell-based, Pseudomonas aeruginosa ATCC 27853; conditions: MIC (1μM)
Excerpt: (§2) The sample for the test of the Transmission Electron Microscope (TEM) was to follow the same procedure as SEM. After the overnight pre-fixation with 2.5% glutaraldehyde, the bacteria was then post-fixed with 2% osmium tetroxide (sealed ampule, Shanghai, China). Afterward, the samples were dehydrated with ethanol at a series of concentrations (50, 70, 90, and 100%) and substituted the 100% ethanol with 50% ethanol+50% acetone, 100% acetone, 50% acetone+50% epoxy resin, and 100% epoxy resin successively. Finally, the samples were sectioned and stained for observation.

[4] = tested on: S. aureus ATCC 29213; assay: Transmission electron microscope; type: cell-based, Staphylococcus aureus ATCC 29213; conditions: MIC (2μM)
Excerpt: as §2

[5] = tested on: P. aeruginosa ATCC 27853; assay: Time-kill curve; type: cell-based, Pseudomonas aeruginosa ATCC 27853; conditions: 1×10^5CFU/ml, colony counting on MHA, mean of three assays
Procedure: The logarithmic phase bacterial cells (P. aeruginosa ATCC 27853 and S. aureus ATCC 29213) were harvested and diluted to 1×10^5CFU/ml ([Dou et al., 2017]). The testing peptides at different concentrations (1×MIC, 2×MIC, and 4×MIC) were challenged with bacteria at a series of time intervals (0, 5, 10, 30, 60, and 120min). Then the reaction system was diluted several times and plated on Mueller-Hinton agar (MHA, AoBoX, Shanghai, China) plates. The plates were incubated 24h at 37°C in order to count the bacterial colonies. The data were the means of three times independent assays.

[6] = tested on: P. aeruginosa 27853; type: cell-based, Pseudomonas aeruginosa ATCC 27853
Procedure: The famous microtiter dilution, National Committee for Clinical Laboratory Standards, was adopted to measure the antimicrobial ability of the engineering peptides ([Chou et al., 2016]). In brief, the 50μl with serial dilution was incubated with the same volume bacteria (1×10^5CFU/ml in midi-logarithmic phase) in a 96-well plate 18–24h at 37°C. The positive control was the bacteria treated with culture medium and the negative control was merely culture medium. […] The antimicrobial performance of peptides against P. aeruginosa 27853 cells was further studied under the complicated physiological conditions ([Lyu et al., 2016]). […] The serum was also taken into the consideration for the adverse impact on the antimicrobial effect of peptides.

[7] = tested on: P. aeruginosa ATCC 27853 cells; assay: Cytoplasmic membrane depolarization, diSC3-5; type: cell-based, Pseudomonas aeruginosa ATCC 27853; conditions: 1/2 MIC, 0s to 1,020s
Procedure: The cytoplasmic membrane depolarization of peptides was analyzed with membrane potential-sensitive dye DISC3-5 ([Ma et al., 2011]). First, 0.4μM DISC3-5 (Sigma-Aldrich, Shanghai, China) was incubated with the P. aeruginosa ATCC 27853 cells (OD600=0.05) suspended in 5mM HEPES buffer supplied with 20mM glucose for 1h. Then 100mMK^+ was introduced into the mixture for the reason of keeping K^+ concentration equilibration of bacterial cytoplasmic and extracellular conditions. Afterward, the peptides were reacted with the bacterial cells and the fluorescence value was tracked over time to plot the fluorescence curve (excitation λ=622nm, emission λ=670nm).

[8] = tested on: human red blood cells (hRBCs); assay: Hemolytic activity; type: cell-based; conditions: hRBC; ratio of MHC to GM
Excerpt: The hemolytic activity of peptides was reflected by the releasing amount of hemoglobin from erythrocytes lysis induced by peptides ([Dong et al., 2014a]). The informed consent was obtained from the volunteers (3 healthy 25-year-old male volunteers) before the experiment. In brief, the human red blood cells (hRBCs), donated by volunteer, were collected, washed, and resuspended in PBS at pH 7.2. The peptides were serially diluted in PBS at different concentrations in a 96-well cell cultures plate and incubated with 50μl hRBCs for 1h at 37°C. The 0.1% Trition X-100 was selected as the treatment of positive control and the negative control was the hRBCs treated with PBS. After 1h incubation, the supernatant, obtained by centrifuging the plate 1,000g for 5min, was transferred to a brand-new plate for absorbance detection at 570nm. The releasing amount of hemoglobin was converted to the percent hemolysis against to 0.1% Triton X-100 treatment. The lowest concentration caused 5% hemolysis of hRBCs and was defined as the lowest hemolytic concentration of antimicrobial peptide.

[9] = CD spectrum, secondary structure; type: physicochemical; conditions: 150μM peptide
Procedure: The circular dichroism (CD) spectrum was further determined by analysis the secondary structure of peptides in different membrane-mimic environments ([Dong et al., 2014b]). The two totally different mimic environments were 10mM PBS and 50% TFE solution and the final concentration of peptides was fixed at 150μM Then the samples were transferred into a rectangular quartz cuvette (1mm path length) and further underwent the scanning of J-820 spectropolarimeter (Jasco, Tokyo, Japan) at the speed of 50nm/min. The wavelengths ranged from 190 to 250nm and were recorded to plot the observed ellipticity curve. The observed value at each time point was the average of three scans. The results were presented of mean residue ellipticity, which was calculated from the observed ellipticity as follows. θM=θobs⋅1000/(c⋅l⋅n); ([Zhu et al., 2014a])

VKKWVKKWVKKWVKKW-NH2 [VW5]
Therapeutic index (TI) [1]: 1860.86
Therapeutic index (TI) [2]: 5090.03
ultrastructure (TEM) [3]: cellular contents of bacterial cells leaked
ultrastructure (TEM) [4]: diffused around the shrunken cells
time to complete eradication of bacterial cells ([5]; 2×MIC): 10 min
time to complete eradication of bacterial cells ([5]; 4×MIC): 30 min
change of MIC compared to the control ([6]; 12.5% serum): did not change
increase of MIC compared to the control ([6]; 50% serum): fourfold
cytoplasmic membrane depolarization, diSC3-5 fluorescence over time [7]: dose-dependent effect
Therapeutic index (TI) [8]: > 76.19
secondary structure (CD) ([9]; 10mM sodium phosphate buffer): unordered conformation
secondary structure (CD) ([9]; 50% TFE): α-helical tendency
